The values below come from patent US11548871B2, “Triazole carbamate pyridyl sulfonamides as LPA receptor antagonists and uses thereof” (Gilead Sciences, Inc., priority 2019, dated 2023).

This assay addresses human LPAR1 (Homo sapiens, UniProt Q92633). The experiment in a line: LPAR1 intracellular calcium mobilization assay (antagonist mode).

Chain of human LPAR1 (Q92633 whole entry): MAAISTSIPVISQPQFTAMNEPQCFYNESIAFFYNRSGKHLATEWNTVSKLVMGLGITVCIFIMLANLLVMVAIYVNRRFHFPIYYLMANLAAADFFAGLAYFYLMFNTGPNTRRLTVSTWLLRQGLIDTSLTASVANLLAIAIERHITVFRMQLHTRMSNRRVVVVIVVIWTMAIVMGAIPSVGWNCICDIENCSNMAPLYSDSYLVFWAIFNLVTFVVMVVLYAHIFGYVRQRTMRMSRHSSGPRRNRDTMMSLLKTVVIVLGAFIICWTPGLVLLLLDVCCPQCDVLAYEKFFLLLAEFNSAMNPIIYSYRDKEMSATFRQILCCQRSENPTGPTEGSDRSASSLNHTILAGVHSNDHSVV
Method: In vitro LPAR1 activity was measured in an intracellular calcium mobilization assay.
Prior to testing cell media were aspirated from the cells and replaced with 20 μL Calcium Dye Loading Buffer (DiscoverX Calcium NoWash^PLUS Assay Kit cat #90-0091) and 2.5 mM Probenecid (Sigma Aldrich cat #P8761, prepared fresh) in HBSS/20 mM Hepes for 60 min at 37° C.
For agonist dose curves, cells were removed from the incubator after dye loading and 10 μL HBSS/20 mM Hepes including 3× vehicle was added. Cells were incubated for 30 min at room temperature in the dark to equilibrate plate temperatures. An intermediate LPA dilution series was prepared in assay buffer to generate 4× stock. Calcium mobilization was monitored on a FLIPR Tetra (MDS, San Jose, Calif.) for 2 min and 10 μL 4×LPA in HBSS/20 mM Hepes was added to the cells 5 s into the assay.
An intermediate antagonist dilution series was prepared as 3× samples in assay buffer. After dye loading, cells were removed from the incubator and 10 μL 3× antagonist was added. Cells were incubated for 30 min at room temperature in the dark to equilibrate plate temperatures. The final vehicle (DMSO) concentration was 1%. Compound antagonist activities was measured on a FLIPR Tetra. Calcium mobilization was monitored for 2 min and 10 μL EC80 agonist in HBSS/20 mM Hepes was added to the cells 5 s into the assay. Compound activity was analyzed using CBIS data analysis suite (ChemInnovation Software, San Diego, Calif.).

Consider `Cn1nnc(-c2ccc(NS(C)(=O)=O)cn2)c1NC(=O)O[C@H](CF)c1cccc(F)c1` [Compound 22, (S)-2-fluoro-1-(3-fluorophenyl)ethyl (1-methyl-4-(5-(methylsulfonamido)pyridin-2-yl)-1H-1,2,3-triazol-5-yl)carbamate], for which the EC50 amounted to 8.7 nM.
Under `CNc1nc(-c2nnn(C)c2NC(=O)O[C@H](CF)c2ccccc2)ccc1NS(C)(=O)=O` [Compound 155, (S)-2-fluoro-1-phenylethyl (1-methyl-4-(6-(methylamino)-5-(methylsulfonamido)pyridin-2-yl)-1H-1,2,3-triazol-5-yl)carbamate] stands 84.7 nM; under `C[C@@H](OC(=O)Nc1c(-c2cc(F)c(NS(C)(=O)=O)cn2)nnn1C)c1cccnc1Cl` [Compound 158, (R)-1-(2-chloropyridin-3-yl)ethyl (4-(4-fluoro-5-(methylsulfonamido)pyridin-2-yl)-1-methyl-1H-1,2,3-triazol-5-yl)carbamate], 78.1 nM; under `Cc1nc(-c2nnn(C)c2NC(=O)O[C@H](C)c2ccc(F)nc2C)ccc1NS(C)(=O)=O` [Compound 143, (R)-1-(6-fluoro-2-methylpyridin-3-yl)ethyl (1-methyl-4-(6-methyl-5-(methylsulfonamido)pyridin-2-yl)-1H-1,2,3-triazol-5-yl)carbamate], 330 nM.
Consider `Cc1nc(-c2nnn(C)c2NC(=O)O[C@H](CF)c2ccccc2F)ccc1NS(C)(=O)=O` [Compound 44, (S)-2-fluoro-1-(2-fluorophenyl)ethyl (1-methyl-4-(6-methyl-5-(methylsulfonamido)pyridin-2-yl)-1H-1,2,3-triazol-5-yl)carbamate], for which the EC50 came out at 50 nM.
For `Cc1nc(-c2nnn(C)c2NC(=O)O[C@H](C)c2ccccc2C(F)(F)F)ccc1NS(C)(=O)=O` [Compound 98, (R)-1-(2-(trifluoromethyl)phenyl)ethyl (1-methyl-4-(6-methyl-5-(methylsulfonamido)pyridin-2-yl)-1H-1,2,3-triazol-5-yl)carbamate] the value was 69.9 nM; for `COCC(OC(=O)Nc1c(-c2ccc(NS(C)(=O)=O)c(C)n2)nnn1C)c1ccccc1` (stereo not shown) [Compound 34, 2-methoxy-1-phenylethyl (1-methyl-4-(6-methyl-5-(methylsulfonamido)pyridin-2-yl)-1H-1,2,3-triazol-5-yl)carbamate], 469 nM.
`Cc1nc(-c2nnn(C)c2NC(=O)O[C@H](CF)c2cc(F)ccc2F)ccc1NS(C)(=O)=O` [Compound 45, (S)-1-(2,5-difluorophenyl)-2-fluoroethyl (1-methyl-4-(6-methyl-5-(methylsulfonamido)pyridin-2-yl)-1H-1,2,3-triazol-5-yl)carbamate]: the EC50 is 55.8 nM.
Under `Cc1nc(-c2nnn(C)c2NC(=O)OC(C)c2cncc(Cl)c2)ccc1NS(C)(=O)=O` (stereo not shown) [Compound 83, 1-(5-chloropyridin-3-yl)ethyl (1-methyl-4-(6-methyl-5-(methylsulfonamido)pyridin-2-yl)-1H-1,2,3-triazol-5-yl)carbamate] stands 623 nM.
As to `Cc1nc(-c2nnn(C)c2NC(=O)OC(CCC2CC2)C(F)(F)F)ccc1NS(C)(=O)=O` (stereo not shown) [Compound 46, 4-cyclopropyl-1,1,1-trifluorobutan-2-yl (1-methyl-4-(6-methyl-5-(methylsulfonamido)pyridin-2-yl)-1H-1,2,3-triazol-5-yl)carbamate], the EC50 turned out to be 91.3 nM.
For `C[C@@H](OC(=O)Nc1c(-c2ccc(NS(C)(=O)=O)cn2)nnn1C)c1csnc1Cl` [Compound 119, (R)-1-(3-chloroisothiazol-4-yl)ethyl (1-methyl-4-(5-(methylsulfonamido)pyridin-2-yl)-1H-1,2,3-triazol-5-yl)carbamate] the value was 50.2 nM; for `Cc1nc(-c2nnn(C)c2NC(=O)OC(C)c2ncccc2Cl)ccc1NS(C)(=O)=O` (stereo not shown) [Compound 131, 1-(3-chloropyridin-2-yl)ethyl (1-methyl-4-(6-methyl-5-(methylsulfonamido)pyridin-2-yl)-1H-1,2,3-triazol-5-yl)carbamate], 675 nM; for `Cc1nc(-c2nnn(C)c2NC(=O)O[C@H](C)c2cc(F)cnc2C#N)ccc1NS(C)(=O)=O` [Compound 152, 1-(2-cyano-5-fluoropyridin-3-yl)ethyl (1-methyl-4-(6-methyl-5-(methylsulfonamido)pyridin-2-yl)-1H-1,2,3-triazol-5-yl)carbamate], 1300 nM.
Under `CCCCC[C@@H](C)OC(=O)Nc1c(-c2ccc(NS(C)(=O)=O)c(C)n2)nnn1C` [Compound 71, (R)-heptan-2-yl (1-methyl-4-(6-methyl-5-(methylsulfonamido)pyridin-2-yl)-1H-1,2,3-triazol-5-yl)carbamate] stands 1740 nM.
For `Cc1nc(-c2nnn(C)c2NC(=O)OCc2cc(F)ccc2Cl)ccc1NS(C)(=O)=O` [Compound 38, 2-chloro-5-fluorobenzyl (1-methyl-4-(6-methyl-5-(methylsulfonamido)pyridin-2-yl)-1H-1,2,3-triazol-5-yl)carbamate] the value was 167 nM; for `Cc1nc(-c2nnn(C)c2NC(=O)O[C@H](C)c2scnc2Cl)ccc1NS(C)(=O)=O` [Compound 140, (R)-1-(4-chlorothiazol-5-yl)ethyl (1-methyl-4-(6-methyl-5-(methylsulfonamido)pyridin-2-yl)-1H-1,2,3-triazol-5-yl)carbamate], 305 nM; for `CCCC[C@@H](C)OC(=O)Nc1c(-c2ccc(NS(C)(=O)=O)c(C)n2)nnn1C` [Compound 28, (R)-hexan-2-yl (1-methyl-4-(6-methyl-5-(methylsulfonamido)pyridin-2-yl)-1H-1,2,3-triazol-5-yl)carbamate], 171 nM.
Turning to `C[C@@H](OC(=O)Nc1c(-c2ccc(NS(C)(=O)=O)cn2)nnn1C)c1cc(Cl)sc1Cl` [Compound 110, (R)-1-(2,5-dichlorothiophen-3-yl)ethyl (1-methyl-4-(5-(methylsulfonamido)pyridin-2-yl)-1H-1,2,3-triazol-5-yl)carbamate], the EC50 turned out to be 12.3 nM.
For `C[C@@H](OC(=O)Nc1c(-c2ccc(NS(C)(=O)=O)cn2)nnn1C)c1cccnc1Cl` [Compound 23, (R)-1-(2-chloropyridin-3-yl)ethyl (1-methyl-4-(5-(methylsulfonamido)pyridin-2-yl)-1H-1,2,3-triazol-5-yl)carbamate] the value was 36 nM; for `Cc1nc(-c2nnn(C)c2NC(=O)O[C@H](C)c2cc(F)cc(F)c2)ccc1NS(C)(=O)=O` [Compound 53, (R)-1-(3,5-difluorophenyl)ethyl (1-methyl-4-(6-methyl-5-(methylsulfonamido)pyridin-2-yl)-1H-1,2,3-triazol-5-yl)carbamate], 170 nM; for `Cc1nc(-c2nnn(C)c2NC(=O)O[C@H](C)c2nc(Cl)sc2Cl)ccc1NS(C)(=O)=O` [Compound 139, (R)-1-(2,5-dichlorothiazol-4-yl)ethyl (1-methyl-4-(6-methyl-5-(methylsulfonamido)pyridin-2-yl)-1H-1,2,3-triazol-5-yl)carbamate], 163 nM.
Under `Cc1nc(-c2nnn(C)c2NC(=O)O[C@@H](c2cccc(Cl)c2)C(F)F)ccc1NS(C)(=O)=O` [Compound 62, (S)-1-(3-chlorophenyl)-2,2-difluoroethyl (1-methyl-4-(6-methyl-5-(methylsulfonamido)pyridin-2-yl)-1H-1,2,3-triazol-5-yl)carbamate] stands 29 nM; under `Cc1nc(-c2nnn(C)c2NC(=O)O[C@H](C)c2cccc(F)c2)ccc1NS(=O)(=O)C1COC1` [Compound 109, (R)-1-(3-fluoro-phenyl)ethyl (1-methyl-4-(6-methyl-5-(oxetane-3-sulfonamido)pyridin-2-yl)-1H-1,2,3-triazol-5-yl)carbamate], 705 nM.
As for `Cc1nc(-c2nnn(C)c2NC(=O)OCCC(C)(C)C)ccc1NS(C)(=O)=O` [Compound 32, 3,3-dimethylbutyl (1-methyl-4-(6-methyl-5-(methylsulfonamido)pyridin-2-yl)-1H-1,2,3-triazol-5-yl)carbamate], the EC50 amounted to 1690 nM.
Under `Cc1nc(-c2nnn(C)c2NC(=O)O[C@@H](c2cc(F)ccc2F)C(F)F)ccc1NS(C)(=O)=O` [Compound 26, (S)-1-(2,5-difluorophenyl)-2,2-difluoroethyl (1-methyl-4-(6-methyl-5-(methylsulfonamido)pyridin-2-yl)-1H-1,2,3-triazol-5-yl)carbamate] stands 34.1 nM; under `Cc1nc(-c2nnn(C)c2NC(=O)O[C@H](C)c2cc(F)c(F)cc2F)ccc1NS(C)(=O)=O` [Compound 90, (R)-1-(2,4,5-trifluorophenyl)ethyl(1-methyl-4-(6-methyl-5-(methylsulfonamido)pyridin-2-yl)-1H-1,2,3-triazol-5-yl)carbamate], 282 nM.
Under `C[C@@H](OC(=O)Nc1c(-c2ccc(NS(C)(=O)=O)cn2)nnn1C)c1ccccc1F` [Compound 16, (R)-1-(2-fluorophenyl)ethyl (1-methyl-4-(5-(methylsulfonamido)pyridin-2-yl)-1H-1,2,3-triazol-5-yl)carbamate] stands 5.3 nM; under `COCc1nc(-c2nnn(C)c2NC(=O)O[C@H](C)c2cccnc2Cl)ccc1NS(C)(=O)=O` [Compound 145, (R)-1-(2-chloropyridin-3-yl)ethyl (4-(6-(methoxymethyl)-5-(methylsulfonamido)pyridin-2-yl)-1-methyl-1H-1,2,3-triazol-5-yl)carbamate], 493 nM; under `C[C@@H](OC(=O)Nc1c(-c2ccc(NS(C)(=O)=O)c(Cl)n2)nnn1C)c1cccnc1Cl` [Compound 154, (R)-1-(2-chloropyridin-3-yl)ethyl (4-(6-chloro-5-(methylsulfonamido)pyridin-2-yl)-1-methyl-1H-1,2,3-triazol-5-yl)carbamate], 278 nM.
For `Cc1nc(-c2nnn(C)c2NC(=O)OC(C)c2cccnc2C)ccc1NS(C)(=O)=O` (stereo not shown) [Compound 81, 1-(2-methylpyridin-3-yl)ethyl (1-methyl-4-(6-methyl-5-(methylsulfonamido)pyridin-2-yl)-1H-1,2,3-triazol-5-yl)carbamate] the value was 876 nM; for `Cc1nc(-c2nnn(C)c2NC(=O)OCc2cc(F)ccc2F)ccc1NS(C)(=O)=O` [Compound 36, 2,5-difluorobenzyl (1-methyl-4-(6-methyl-5-(methylsulfonamido)pyridin-2-yl)-1H-1,2,3-triazol-5-yl)carbamate], 220 nM.
